# Data as given in ChEMBL document CHEMBL1944599, “From libraries to candidate: the discovery of new ultra long-acting dibasic β₂-adrenoceptor agonists” (Bioorg Med Chem Lett, 2012).
# Calls of active or inactive are those of the source. The rule behind the calls is not given here.
# How the values were obtained:
# [1] = target: T1, Beta-1 adrenergic receptor (Homo sapiens, UniProt P08588); assay: Binding affinity to beta1 adrenoceptor
# Hepatocyte = settings: rat, hepatocytes
# Description: Drug metabolism in rat hepatocytes
# [2] = target: Beta-2 adrenergic receptor (Cavia porcellus) (UniProt Q8K4Z4); assay: Agonist activity at beta2 adrenoceptor in guinea pig trachea assessed as reduction in methacholine-induced contraction relative to untreated control; format: functional, tissue-based
# Chain of Beta-2 adrenergic receptor (Cavia porcellus) (Q8K4Z4 whole entry, looked up): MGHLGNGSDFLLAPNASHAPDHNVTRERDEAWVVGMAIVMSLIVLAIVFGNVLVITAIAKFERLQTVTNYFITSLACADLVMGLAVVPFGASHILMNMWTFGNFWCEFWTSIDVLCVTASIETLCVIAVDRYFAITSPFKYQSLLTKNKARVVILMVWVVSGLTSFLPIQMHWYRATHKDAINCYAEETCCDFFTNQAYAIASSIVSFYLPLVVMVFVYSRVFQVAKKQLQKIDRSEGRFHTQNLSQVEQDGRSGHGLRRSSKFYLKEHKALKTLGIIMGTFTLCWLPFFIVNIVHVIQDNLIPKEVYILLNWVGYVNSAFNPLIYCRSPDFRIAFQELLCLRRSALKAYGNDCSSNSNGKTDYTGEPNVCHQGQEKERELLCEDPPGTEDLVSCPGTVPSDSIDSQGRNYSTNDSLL
# [3] = target: T2, Beta-2 adrenergic receptor (Homo sapiens, UniProt P07550); assay: Agonist activity at human beta2 adrenoceptor expressed in H292 cells assessed as increase in cAMP accumulation after 60 mins by spectrophotometry; format: functional, cell-based
# T2 sequence (P07550 whole entry): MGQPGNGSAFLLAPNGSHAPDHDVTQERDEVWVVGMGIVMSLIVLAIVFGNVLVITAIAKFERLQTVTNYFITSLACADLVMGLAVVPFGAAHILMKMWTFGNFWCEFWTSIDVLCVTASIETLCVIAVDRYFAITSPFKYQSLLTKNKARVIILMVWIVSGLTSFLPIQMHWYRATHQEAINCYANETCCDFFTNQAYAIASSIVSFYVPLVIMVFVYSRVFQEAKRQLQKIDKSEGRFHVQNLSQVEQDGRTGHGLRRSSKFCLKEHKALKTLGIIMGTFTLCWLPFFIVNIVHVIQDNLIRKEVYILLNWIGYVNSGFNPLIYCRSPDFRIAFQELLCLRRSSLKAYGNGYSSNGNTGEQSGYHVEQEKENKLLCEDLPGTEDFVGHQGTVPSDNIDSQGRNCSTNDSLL
# [4] = target: Beta-2 adrenergic receptor (Cavia porcellus, UniProt Q8K4Z4); assay: Agonist activity at beta2 adrenoceptor in guinea pig trachea assessed as reduction in methacholine-induced contraction; format: functional, tissue-based
# Chain of Beta-2 adrenergic receptor (Cavia porcellus, UniProt Q8K4Z4) (Q8K4Z4 whole entry): as the sequence (Q8K4Z4 whole entry, looked up) above
# [5] = Apparent volume of distribution during terminal phase in iv dosed rat; format: ADME, organism-based; settings: in vivo, read-out: Vz
# [6] = target: T3, Alpha-1D adrenergic receptor (Homo sapiens, UniProt P25100); assay: Displacement of radiolabeled Prazosin from alpha1D adrenoceptor
# T3 sequence (P25100 whole entry): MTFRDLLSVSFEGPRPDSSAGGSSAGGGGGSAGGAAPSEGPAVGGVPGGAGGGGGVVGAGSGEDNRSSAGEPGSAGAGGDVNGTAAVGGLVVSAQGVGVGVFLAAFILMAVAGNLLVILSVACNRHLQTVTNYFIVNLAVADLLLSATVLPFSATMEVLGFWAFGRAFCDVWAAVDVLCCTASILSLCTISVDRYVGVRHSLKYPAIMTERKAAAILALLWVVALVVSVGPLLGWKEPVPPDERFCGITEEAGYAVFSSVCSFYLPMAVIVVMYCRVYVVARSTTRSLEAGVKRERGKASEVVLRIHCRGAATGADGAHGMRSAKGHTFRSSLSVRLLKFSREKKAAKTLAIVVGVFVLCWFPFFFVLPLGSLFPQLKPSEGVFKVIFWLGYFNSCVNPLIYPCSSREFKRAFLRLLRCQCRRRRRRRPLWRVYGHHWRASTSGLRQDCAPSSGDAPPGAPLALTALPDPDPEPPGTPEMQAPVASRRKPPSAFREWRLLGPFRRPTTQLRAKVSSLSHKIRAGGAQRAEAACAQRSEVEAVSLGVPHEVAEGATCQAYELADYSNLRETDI
# [7] = target: T2, Beta-2 adrenergic receptor; assay: Displacement of radiolabeled iodocyanopindolol from recombinant beta2 adrenoceptor
# D(2) dopamine receptor [8] = target: T4, D(2) dopamine receptor (Homo sapiens, UniProt P14416); assay: Displacement of radiolabeled spiperone from dopamine D2 receptor
# T4 sequence (P14416 whole entry): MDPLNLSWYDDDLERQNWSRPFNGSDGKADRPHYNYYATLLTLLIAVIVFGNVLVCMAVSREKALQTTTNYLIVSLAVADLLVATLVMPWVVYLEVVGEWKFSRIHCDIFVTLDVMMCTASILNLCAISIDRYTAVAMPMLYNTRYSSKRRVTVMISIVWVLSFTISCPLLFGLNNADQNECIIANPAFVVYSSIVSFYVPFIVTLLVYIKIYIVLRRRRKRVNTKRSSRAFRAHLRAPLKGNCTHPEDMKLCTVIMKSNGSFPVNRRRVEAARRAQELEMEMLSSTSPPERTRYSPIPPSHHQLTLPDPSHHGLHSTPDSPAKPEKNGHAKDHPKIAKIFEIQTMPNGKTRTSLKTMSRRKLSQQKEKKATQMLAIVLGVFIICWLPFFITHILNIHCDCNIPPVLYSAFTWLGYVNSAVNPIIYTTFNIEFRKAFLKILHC
# [9] = target: T1, Beta-1 adrenergic receptor; assay: Displacement of radiolabeled iodocyanopindolol from beta1 adrenoceptor
# [10] = target: T5, Alpha-1D adrenergic receptor (Homo sapiens) (UniProt P25100); assay: […] to Alpha-1D adrenoceptor expressed in HEK cells by calcium flux assay relative to control; format: cell-based; settings: HEK293
# T5 sequence (whole entry): T3 sequence (P25100 whole entry)
# D(2) dopamine receptor [11] = target: T4, D(2) dopamine receptor; assay: […] to dopamine D2 receptor expressed in HEK cells by GTPgammaS binding assay relative to control; format: cell-based; settings: HEK293
# Cavia porcellus [12] = assay: Bronchoprotective activity in histamine-induced bronchoconstriction guinea pig model at 7 ug/kg, it co-administered with beta2 adrenoceptor antagonist propranolol; format: functional, organism-based
# Cavia porcellus [13] = assay: Bronchoprotective activity in it dosed guinea pig assessed as inhibition of histamine-induced constriction
# in vivo = settings: rat, iv
# Description: Terminal half life in iv dosed rat
# [14] = Clearance in iv dosed rat; settings: in vivo
# physchem = settings: 1-octanol/aqueous buffer, pH 7.4
# [15] = target: T6, Voltage-gated inwardly rectifying potassium channel KCNH2 (Homo sapiens, UniProt Q12809); assay: Inhibition of human ERG by patch clamp assay
# T6 sequence (Q12809 whole entry): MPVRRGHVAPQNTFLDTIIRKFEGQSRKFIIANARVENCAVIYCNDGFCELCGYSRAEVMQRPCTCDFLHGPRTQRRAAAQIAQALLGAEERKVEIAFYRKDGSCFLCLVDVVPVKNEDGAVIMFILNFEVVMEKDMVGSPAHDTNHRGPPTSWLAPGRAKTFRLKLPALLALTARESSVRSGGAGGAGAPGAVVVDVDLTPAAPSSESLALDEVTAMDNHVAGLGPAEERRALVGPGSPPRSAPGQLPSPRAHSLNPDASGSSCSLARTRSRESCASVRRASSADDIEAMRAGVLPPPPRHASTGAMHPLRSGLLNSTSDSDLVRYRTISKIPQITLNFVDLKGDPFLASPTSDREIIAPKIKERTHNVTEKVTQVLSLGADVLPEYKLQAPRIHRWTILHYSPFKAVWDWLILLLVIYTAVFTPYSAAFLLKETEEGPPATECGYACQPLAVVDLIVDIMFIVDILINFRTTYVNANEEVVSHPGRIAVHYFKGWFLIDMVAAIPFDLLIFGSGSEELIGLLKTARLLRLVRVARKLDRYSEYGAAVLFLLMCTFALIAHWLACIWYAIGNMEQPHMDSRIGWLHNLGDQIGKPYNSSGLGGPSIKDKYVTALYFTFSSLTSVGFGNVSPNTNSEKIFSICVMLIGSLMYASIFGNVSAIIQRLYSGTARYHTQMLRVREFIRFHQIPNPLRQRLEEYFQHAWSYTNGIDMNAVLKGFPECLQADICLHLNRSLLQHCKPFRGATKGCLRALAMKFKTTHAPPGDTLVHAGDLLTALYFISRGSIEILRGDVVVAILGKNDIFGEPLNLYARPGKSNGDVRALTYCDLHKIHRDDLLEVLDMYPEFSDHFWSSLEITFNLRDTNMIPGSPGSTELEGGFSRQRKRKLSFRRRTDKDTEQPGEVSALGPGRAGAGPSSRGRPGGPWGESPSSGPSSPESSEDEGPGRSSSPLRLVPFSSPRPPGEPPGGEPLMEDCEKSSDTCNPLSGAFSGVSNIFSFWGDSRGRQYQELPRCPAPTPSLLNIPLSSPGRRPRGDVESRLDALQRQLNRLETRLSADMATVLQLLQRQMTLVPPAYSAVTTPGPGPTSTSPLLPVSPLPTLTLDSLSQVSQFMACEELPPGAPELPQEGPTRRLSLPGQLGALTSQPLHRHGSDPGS
# [16] = Oral bioavailability in dog; format: ADME, organism-based, Canis lupus familiaris; settings: in vivo
# [17] = target: T3, Alpha-1D adrenergic receptor; assay: […] to Alpha-1D adrenoceptor expressed in HEK cells by calcium flux assay; format: cell-based, HEK293
# [18] = Half life in it dosed dog; format: ADME, organism-based, Canis lupus familiaris; settings: in vivo, inhaled or intranasal
# [19] = Inhibition of cytochrome P450; format: ADME
# Cavia porcellus [20] = assay: Bronchoprotective activity in histamine-induced bronchoconstriction guinea pig model at 7 ug/kg, it after 24 hrs; format: functional
# D(2) dopamine receptor [21] = target: T4, D(2) dopamine receptor; assay: […] to dopamine D2 receptor expressed in HEK cells by GTPgammaS binding assay; format: cell-based, HEK293
# [22] = Oral bioavailability in rat; format: ADME, organism-based; settings: in vivo
# Cytochrome P450 2D6 = Cytochrome P450 2D6 (Homo sapiens, UniProt P10635); assay: Inhibition of CYP2D6; format: ADME
# Chain of Cytochrome P450 2D6 (P10635 whole entry): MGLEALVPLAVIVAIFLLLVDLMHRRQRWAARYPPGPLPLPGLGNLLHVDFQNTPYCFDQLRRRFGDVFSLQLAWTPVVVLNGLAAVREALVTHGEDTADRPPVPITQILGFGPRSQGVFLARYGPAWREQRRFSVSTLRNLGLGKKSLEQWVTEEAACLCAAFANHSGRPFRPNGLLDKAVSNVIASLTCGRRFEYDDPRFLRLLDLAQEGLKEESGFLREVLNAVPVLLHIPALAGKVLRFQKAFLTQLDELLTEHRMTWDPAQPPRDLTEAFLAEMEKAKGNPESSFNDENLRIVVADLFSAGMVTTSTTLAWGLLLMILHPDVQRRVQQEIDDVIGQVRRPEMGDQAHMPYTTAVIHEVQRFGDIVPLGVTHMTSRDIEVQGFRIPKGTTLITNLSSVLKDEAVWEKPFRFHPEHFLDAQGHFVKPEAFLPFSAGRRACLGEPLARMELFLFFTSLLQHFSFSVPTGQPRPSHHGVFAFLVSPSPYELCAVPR
# [23] = target: T6, Voltage-gated inwardly rectifying potassium channel KCNH2; assay: Inhibition of human ERG
# Cytochrome P450 3A4 = Cytochrome P450 3A4 (Homo sapiens, UniProt P08684); assay: Inhibition of CYP3A4; format: ADME
# Chain of Cytochrome P450 3A4 (P08684 whole entry): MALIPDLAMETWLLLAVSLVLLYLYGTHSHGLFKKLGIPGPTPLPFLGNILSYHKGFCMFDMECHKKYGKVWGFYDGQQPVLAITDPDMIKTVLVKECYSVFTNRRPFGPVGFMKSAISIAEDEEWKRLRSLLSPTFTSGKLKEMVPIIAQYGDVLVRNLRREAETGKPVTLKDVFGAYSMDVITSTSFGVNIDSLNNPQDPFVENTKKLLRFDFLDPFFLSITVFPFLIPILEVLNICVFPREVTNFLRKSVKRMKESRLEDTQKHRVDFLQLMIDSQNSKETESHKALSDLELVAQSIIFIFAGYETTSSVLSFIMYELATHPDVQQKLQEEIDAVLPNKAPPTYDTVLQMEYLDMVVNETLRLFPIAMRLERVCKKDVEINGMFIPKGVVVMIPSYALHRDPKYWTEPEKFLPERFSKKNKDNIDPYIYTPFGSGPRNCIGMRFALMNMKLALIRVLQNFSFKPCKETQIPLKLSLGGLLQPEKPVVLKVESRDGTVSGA
# [24] = octanol/water, pH 7.4
# T1 sequence (P08588 whole entry): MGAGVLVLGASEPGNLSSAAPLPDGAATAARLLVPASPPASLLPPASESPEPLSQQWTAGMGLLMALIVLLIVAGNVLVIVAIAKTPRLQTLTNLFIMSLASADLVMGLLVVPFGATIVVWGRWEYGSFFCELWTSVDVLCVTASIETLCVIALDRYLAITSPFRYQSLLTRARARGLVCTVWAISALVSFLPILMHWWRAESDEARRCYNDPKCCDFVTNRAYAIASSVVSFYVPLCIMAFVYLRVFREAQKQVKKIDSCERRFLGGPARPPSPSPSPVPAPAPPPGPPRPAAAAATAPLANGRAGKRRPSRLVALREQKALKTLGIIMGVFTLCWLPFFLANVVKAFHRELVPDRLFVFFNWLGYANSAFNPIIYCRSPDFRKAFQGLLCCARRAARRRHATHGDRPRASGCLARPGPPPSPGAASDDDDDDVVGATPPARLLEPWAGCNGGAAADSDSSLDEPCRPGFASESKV
SMILES,Intrinsic activity [2],EC50 [3] [nM],EC50 [4] [nM],Vd [5] [L/kg],IC50 [6] [nM],IC50 [7] [nM],IC50 (D(2) dopamine receptor [8]) [nM],IC50 [9] [nM],half-life (in vivo) [h],clearance [14] [mL/min/kg],logD (physchem),also measured
O=c1[nH]c2c(O)ccc(CCNCCS(=O)(=O)CCCOCCc3ccccc3)c2s1 [SIBENADET],–,–,–,–,–,–,–,–,–,–,–,IC50 [1]: > 10000 nM; Drug metabolism (Hepatocyte): > 117%
COc1ccccc1CNCc1cccc(CCNC[C@H](O)c2ccc(O)c3[nH]c(=O)sc23)c1.Cl,–,–,–,–,–,–,–,–,–,–,–,ED80 (Cavia porcellus [13]): 7 µg/kg
Cc1cccc2c(CCNCc3ccc(CCNC[C@H](O)c4ccc(O)c5[nH]c(=O)sc45)cc3)c[nH]c12,0.8,0.251,0.2,29,100,2,> 794,316,18,18,–,–
CCc1cc2c(cc1CC)CC(NC[C@H](O)c1ccc(O)c3[nH]c(=O)ccc13)C2 [INDACATEROL],–,–,–,–,–,–,–,–,7.6,–,–,IC50 [1]: […]; Drug metabolism (Hepatocyte): 51%; ED80 (Cavia porcellus [13]): 14 µg/kg
O=c1[nH]c2c(O)ccc(CCNCCc3cccc(-c4cccc(CNCc5ccccc5)c4)c3)c2s1,0.9,–,0.501,29,–,31.6,–,–,14,23,0.8,–
C[C@@H](NCc1ccccc1-c1ccc(CCNCCc2ccc(O)c3[nH]c(=O)sc23)cc1)c1ccccc1,0.9,–,0.251,22,–,0.794,–,–,15,19,-0.3,–
O=c1[nH]c2c(O)ccc([C@@H](O)CNCCc3ccc(CNCCc4c(Cl)cccc4Cl)cc3)c2s1,–,0.316,–,–,79.4,3.98,1000,398,–,–,2.3,inhibition (INH) (Cytochrome P450 2D6): Active; inhibition (INH) [23]: Active; inhibition (INH) (Cytochrome P450 3A4): Active
O=c1[nH]c2c(O)ccc([C@@H](O)CNCCc3cccc(CNCCc4c(Cl)cccc4Cl)c3)c2s1,–,–,–,–,63.1,–,251,12.6,–,–,3.2,inhibition (INH) (Cytochrome P450 2D6): Active; inhibition (INH) [23]: Active; inhibition (INH) (Cytochrome P450 3A4): Active
O=c1[nH]c2c(O)ccc([C@@H](O)CNCCc3cccc(CN4CCCC4)c3)c2s1,–,0.631,–,–,1000,3.98,3160,316,–,–,–,logD [24]: 0.8
OCc1cc(C(O)CNCCCCCCOCCCCc2ccccc2)ccc1O (stereo unspecified) [SALMETEROL],–,–,–,–,–,–,–,–,–,–,–,Drug metabolism (Hepatocyte): 85%; ED80 (Cavia porcellus [13]): 1 µg/kg
O=c1[nH]c2c(O)ccc([C@@H](O)CNCCc3ccc(CNCCc4ccccc4)cc3)c2s1,–,0.251,–,–,12.6,2,2000,398,–,–,1.1,–

# Further lines, with some results ahead:
Intrinsic activity [2],EC50 [3] [nM],EC50 [4] [nM],Vd [5] [L/kg],IC50 [6] [nM],IC50 [7] [nM],IC50 (D(2) dopamine receptor [8]) [nM],IC50 [9] [nM],half-life (in vivo) [h],clearance [14] [mL/min/kg],logD (physchem),SMILES,also measured
0.9,0.501,0.316,41,200,2.51,1580,158,–,–,–,O=c1[nH]c2c(O)ccc([C@@H](O)CNCCc3cccc(CNCCc4ccccn4)c3)c2s1,–
0.9,–,–,–,–,–,–,–,–,–,–,COc1ccccc1CNCc1cccc(CCNC[C@H](O)c2ccc(O)c3[nH]c(=O)sc23)c1 [listing 1 of 2 here],Intrinsic activity [10]: 0.3; Intrinsic activity (D(2) dopamine receptor [11]): 0.4; Activity (Cavia porcellus [12]): inactive
–,–,0.501,22,200,–,1000,50.1,14,20,1.1,COc1ccccc1CNCc1cccc(CCNC[C@H](O)c2ccc(O)c3[nH]c(=O)sc23)c1 [listing 2 of 2 here],Activity [15]: > 10 µM; bioavailability [16]: < 2%; EC50 [17]: 126 nM; half-life [18]: 48 h; Activity [19]: > 10 µM; Activity (Cavia porcellus [20]): 64%; EC50 (D(2) dopamine receptor [21]): 251 nM; bioavailability [22]: < 2%
0.9,0.158,0.251,8.2,126,0.501,398,63.1,16,6,1.1,O=c1[nH]c2c(O)ccc([C@@H](O)CNCCc3cccc(CNCCc4ccccc4F)c3)c2s1,–
0.8,–,3.16,28,501,25.1,794,158,18,18,0,COCCNCc1cccc(CCNC[C@H](O)c2ccc(O)c3[nH]c(=O)sc23)c1,–
–,3.16,–,–,251,25.1,1000,200,–,–,1.5,COc1ccccc1CN(C)Cc1cccc(CCNC[C@H](O)c2ccc(O)c3[nH]c(=O)sc23)c1,–
